From patent publication US8362204B2 (priority 2006, dated 2013)
“And” between values parts separate entries of the source, which are not always exact repeats. Equal values may be shown once.

Molecular target: T1, neuronal-type nicotinic receptors (Bos taurus, UniProt Q07263+Q8SPU6)
T1 construct: monolayer cultures of bovine adrenal chromaffin cells; endogenous in cells; host or cells: bovine adrenal chromaffin cells (primary monolayer cultures)
Format: cell-based, Bovine

T1 sequence (Q07263 22-495): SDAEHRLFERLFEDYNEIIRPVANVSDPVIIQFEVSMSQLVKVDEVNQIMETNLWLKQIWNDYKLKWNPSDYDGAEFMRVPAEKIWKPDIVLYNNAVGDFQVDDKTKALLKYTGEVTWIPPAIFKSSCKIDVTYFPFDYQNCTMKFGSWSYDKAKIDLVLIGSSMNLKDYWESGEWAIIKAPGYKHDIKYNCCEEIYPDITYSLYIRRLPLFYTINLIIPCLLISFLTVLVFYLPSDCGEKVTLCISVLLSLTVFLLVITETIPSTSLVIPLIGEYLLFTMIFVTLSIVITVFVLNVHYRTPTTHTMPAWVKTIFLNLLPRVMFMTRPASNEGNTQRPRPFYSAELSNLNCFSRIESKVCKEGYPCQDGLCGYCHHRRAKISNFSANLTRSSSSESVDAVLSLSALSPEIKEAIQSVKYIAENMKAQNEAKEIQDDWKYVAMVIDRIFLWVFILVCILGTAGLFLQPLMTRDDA
T1 sequence (Q8SPU6 20-496): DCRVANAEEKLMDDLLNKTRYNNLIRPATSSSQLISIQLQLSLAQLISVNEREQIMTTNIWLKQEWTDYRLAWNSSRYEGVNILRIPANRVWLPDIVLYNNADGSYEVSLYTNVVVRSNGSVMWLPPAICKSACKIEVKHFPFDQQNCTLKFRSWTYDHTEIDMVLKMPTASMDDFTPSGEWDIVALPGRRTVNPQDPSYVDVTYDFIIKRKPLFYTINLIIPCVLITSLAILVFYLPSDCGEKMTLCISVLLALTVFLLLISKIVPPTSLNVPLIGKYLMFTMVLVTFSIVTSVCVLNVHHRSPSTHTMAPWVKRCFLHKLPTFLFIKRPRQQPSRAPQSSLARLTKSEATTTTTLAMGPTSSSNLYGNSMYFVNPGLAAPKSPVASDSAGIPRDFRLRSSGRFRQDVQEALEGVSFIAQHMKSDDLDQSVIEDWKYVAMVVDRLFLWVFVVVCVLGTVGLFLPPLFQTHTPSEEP

CN1CCCC1c1cccnc1 (centres unmarked) [NICOTINE, nicotine, reference compound]
Adrenaline Release, 1st-4th (individual wells): 4.31% and 4.52% (2×) and 4.48%
Adrenaline Release, mean: 4.46%
Noradrenaline Release, 1st-4th (individual wells): 6.62% and 6.89% (2×) and 6.99%
Noradrenaline Release, mean: 6.85%
noradrenaline released, basal release (0.72%) subtracted: 6.13%
